Measured values taken from patent publication US5405849A, “Angiotensin II receptor blocking 2,3,6 substituted quinazolinones” (American Cyanamid Company, priority 1993, dated 1995).

Assays:
[1] = target: angiotensin II receptors; assay: Angiotensin II receptor binding (displacement of 3H-angiotensin II), rat adrenocortical microsomes; settings: 2 nM 3H-angiotensin II
Protocol: The source of the angiotensin II receptors utilized in the screen is from rat adrenocortical microsomes. The cortices are placed in ice cold sucrose buffer (0.2 m sucrose, 1 mm EDTA, 10 mm Trizma base, pH 7.4) and homogenized in a chilled ground glass tissue grinder. The homogenate is centrifuged at 3000×g for 10 min. and the resultant supernatant is decanted through cheesecloth and centrifuged at 12,000×g for 3 min. […] Binding assays are performed by incubating aliquots of freshly prepared microsomes in the absence or presence of compound (40 uM final concentration). Ten minutes later, ^3 H-angiotensin II is added to each tube (2 nM final concentration) and incubated for 60 minutes at […]. The reaction is terminated by the addition of 3 ml of cold assay buffer without albumin and the bound and free radioactivity is separated rapidly through glass-fiber filters prewetted with assay buffer. After two additional 3 ml rinses, the filters are placed in scintillation fluid and counted in a scintillation counter to determine trapped radioactivity.

[2] = system: angiotensin II (AII) vasopressor response; assay: AII challenge: antagonism of the vasopressor response of angiotensin II in conscious Okamoto-Aoki SHR; format: in vivo, rat (Okamoto-Aoki SHR); settings: for inhibition in vivo at 30 mg/kg / inhibition in vivo at 1 mg/kg / inhibition in vivo at 2 mg/kg: Rattus norvegicus, iv
Procedure, shortened: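 Conscious male Okamoto-Aoki spontaneously hypertensive rats, 16-20 weeks old and about 330 g, received caudal arterial and venous cannulae under local 2% procaine anesthesia. They were kept upright in restraining cages while pulsatile blood pressure was recorded by pressure transducer. The systolic pressure rise to i.v. angiotensin II was measured before and after test compound dosing. Inhibition was expressed relative to each rat's predose response, taken as 100%.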

Compound: CCCCc1nc2ccc(C(CC)OC)cc2c(=O)n1Cc1ccc(-c2ccccc2-c2nnn[nH]2)cc1 (centres unmarked) [Example 55, 2-Butyl-6-(1-methoxypropyl)-3-[[2'-(1H-tetrazol-5-yl) [1,1'-biphenyl]-4-yl]methyl]-4(3H) -quinazolinone]
- IC50 [1]: 5 nM
- Response change (systolic BP increase to AII) ([2]; 30 mg/kg iv, AII .05 ug/kg, 30 min): 10 mmHg
- Response change (systolic BP increase to AII) ([2]; 30 mg/kg iv, AII .05 ug/kg, 90 min): 15 mmHg
- Response change (systolic BP increase to AII) ([2]; 30 mg/kg iv, AII .05 ug/kg, 150 min): 20 mmHg
- Response change (systolic BP increase to AII) ([2]; 30 mg/kg iv, AII .1 ug/kg, 30 min): 15 mmHg
- Response change (systolic BP increase to AII) ([2]; 30 mg/kg iv, AII .1 ug/kg, 90 min): 5 mmHg
- Response change (systolic BP increase to AII) ([2]; 30 mg/kg iv, AII .1 ug/kg, 150 min): 5 mmHg
- inhibition in vivo at 30 mg/kg ([2]; 0.5 h, 30 mg/kg iv, AII .05 ug/kg, 30 min): 82%
- inhibition in vivo at 30 mg/kg ([2]; 0.5 h, 30 mg/kg iv, AII .1 ug/kg, 30 min): 73%
- inhibition in vivo at 30 mg/kg ([2]; 1.5 h, 30 mg/kg iv, AII .05 ug/kg, 90 min): 73%
- inhibition in vivo at 30 mg/kg ([2]; 1.5 h, 30 mg/kg iv, AII .1 ug/kg, 90 min): 91%
- inhibition in vivo at 30 mg/kg ([2]; 2.5 h, 30 mg/kg iv, AII .05 ug/kg, 150 min): 64%
- inhibition in vivo at 30 mg/kg ([2]; 2.5 h, 30 mg/kg iv, AII .1 ug/kg, 150 min): 91%

Compound: CCCCc1nc2ccc(C(OC)c3ccccc3)cc2c(=O)n1Cc1ccc(-c2ccccc2-c2nnn[nH]2)cc1 (centres unmarked) [Example 56, 2-Butyl-6-(methoxyphenylmethyl)-3-[[2'-(1H-tetrazol-5-yl)[1,1'-biphenyl]-4-yl]methyl]-4(3H)-quinazolinone]
- IC50 [1]: 8.6 nM
- Response change (systolic BP increase to AII) ([2]; 1 mg/kg iv, AII .025 ug/kg, 15 min): 18 mmHg
- Response change (systolic BP increase to AII) ([2]; 1 mg/kg iv, AII .025 ug/kg, 30 min): 27 mmHg
- Response change (systolic BP increase to AII) ([2]; 1 mg/kg iv, AII .025 ug/kg, 60 min): 20 mmHg
- Response change (systolic BP increase to AII) ([2]; 1 mg/kg iv, AII .05 ug/kg, 15 min): 15 mmHg
- Response change (systolic BP increase to AII) ([2]; 1 mg/kg iv, AII .05 ug/kg, 30 min): 15 mmHg
- Response change (systolic BP increase to AII) ([2]; 1 mg/kg iv, AII .05 ug/kg, 60 min): 20 mmHg
- Response change (systolic BP increase to AII) ([2]; 1 mg/kg iv, AII .1 ug/kg, 15 min): 15 mmHg
- Response change (systolic BP increase to AII) ([2]; 1 mg/kg iv, AII .1 ug/kg, 30 min): 20 mmHg
- Response change (systolic BP increase to AII) ([2]; 1 mg/kg iv, AII .1 ug/kg, 60 min): 30 mmHg
- Response change (systolic BP increase to AII) ([2]; 2 mg/kg iv, AII .025 ug/kg, 90 min): 10 mmHg
- Response change (systolic BP increase to AII) ([2]; 2 mg/kg iv, AII .025 ug/kg, 120 min): 20 mmHg
- Response change (systolic BP increase to AII) ([2]; 2 mg/kg iv, AII .025 ug/kg, 150 min): 15 mmHg
- Response change (systolic BP increase to AII) ([2]; 2 mg/kg iv, AII .05 ug/kg, 90 min): 15 mmHg
- Response change (systolic BP increase to AII) ([2]; 2 mg/kg iv, AII .05 ug/kg, 120 min): 15 mmHg
- Response change (systolic BP increase to AII) ([2]; 2 mg/kg iv, AII .05 ug/kg, 150 min): 10 mmHg
- Response change (systolic BP increase to AII) ([2]; 2 mg/kg iv, AII .1 ug/kg, 90 min): 5 mmHg
- Response change (systolic BP increase to AII) ([2]; 2 mg/kg iv, AII .1 ug/kg, 120 min): 15 mmHg
- Response change (systolic BP increase to AII) ([2]; 2 mg/kg iv, AII .1 ug/kg, 150 min): 20 mmHg
- inhibition in vivo at 1 mg/kg ([2]; 0.25 h, 1 mg/kg iv, AII .025 ug/kg, 15 min): 40%
- inhibition in vivo at 1 mg/kg ([2]; 0.25 h, 1 mg/kg iv, AII .05 ug/kg, 15 min): 57%
- inhibition in vivo at 1 mg/kg ([2]; 0.25 h, 1 mg/kg iv, AII .1 ug/kg, 15 min): 57%
- inhibition in vivo at 1 mg/kg ([2]; 0.5 h, 1 mg/kg iv, AII .025 ug/kg, 30 min): 27%
- inhibition in vivo at 1 mg/kg ([2]; 0.5 h, 1 mg/kg iv, AII .05 ug/kg, 30 min): 57%
- inhibition in vivo at 1 mg/kg ([2]; 0.5 h, 1 mg/kg iv, AII .1 ug/kg, 30 min): 43%
- inhibition in vivo at 1 mg/kg ([2]; 1 h, 1 mg/kg iv, AII .025 ug/kg, 60 min): 33%
- inhibition in vivo at 1 mg/kg ([2]; 1 h, 1 mg/kg iv, AII .05 ug/kg, 60 min): 43%
- inhibition in vivo at 1 mg/kg ([2]; 1 h, 1 mg/kg iv, AII .1 ug/kg, 60 min): 14%
- inhibition in vivo at 2 mg/kg ([2]; 1.5 h, 2 mg/kg iv, AII .025 ug/kg, 90 min): 67%
- inhibition in vivo at 2 mg/kg ([2]; 1.5 h, 2 mg/kg iv, AII .05 ug/kg, 90 min): 57%
- inhibition in vivo at 2 mg/kg ([2]; 1.5 h, 2 mg/kg iv, AII .1 ug/kg, 90 min): 86%
- inhibition in vivo at 2 mg/kg ([2]; 2 h, 2 mg/kg iv, AII .025 ug/kg, 120 min): 33%
- inhibition in vivo at 2 mg/kg ([2]; 2 h, 2 mg/kg iv, AII .05 ug/kg, 120 min): 57%
- inhibition in vivo at 2 mg/kg ([2]; 2 h, 2 mg/kg iv, AII .1 ug/kg, 120 min): 57%
- inhibition in vivo at 2 mg/kg ([2]; 2.5 h, 2 mg/kg iv, AII .025 ug/kg, 150 min): 50%
- inhibition in vivo at 2 mg/kg ([2]; 2.5 h, 2 mg/kg iv, AII .05 ug/kg, 150 min): 71%
- inhibition in vivo at 2 mg/kg ([2]; 2.5 h, 2 mg/kg iv, AII .1 ug/kg, 150 min): 43%
